# PubChem BioAssay AID463199 (Broad Institute, 2010)
# Calls of active or inactive are those of the source.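 How the source made its calls: active means AC50, the dose giving half-maximal effect, exceeds a fixed cutoff for a compound that rescues yeast growth under heat; inactive means the rest, inconclusive results apart.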
# Test system: S. cerevisiae Burl-1 ts mutant growth, BacTiter-Glo, 38.5C 24 h
# Experiment: growth induction of Burl-1 ts yeast mutant, dose response, counter-screen for SUMOylation pathway inhibitor project, whole organism, S. cerevisiae, luminescence (AID 463199)
row,SMILES,AC50
1,c1ccc(CNc2ccc3ccccc3n2)nc1,> 42 µM (inactive)
2,COc1cc2c(cc1OC)C(c1ccccc1C)CC(=O)N2 (stereo not given),> 42 µM (inactive)
3,Cc1c(Cl)cccc1NC(=O)Cn1c(CCC(=O)O)ccc1-c1ccccc1,> 42 µM (inactive)
4,CN(C)c1ccc(NC(=O)CSc2nc(N)c(C(=O)Nc3ccc(N(C)C)cc3)s2)cc1,> 42 µM (inactive)
5,CCOc1ccc(N2CC(C(=O)OC)CC2=O)cc1 (stereo not given),> 42 µM (inactive)
6,COc1ccc(C2C3=C(CC(C)(C)CC3=O)Nc3n[nH]c(C)c32)cc1 (stereo not given),> 42 µM (inactive)
7,c1ccc(-c2csc(N3CCN(c4ccccn4)CC3)n2)cc1,> 42 µM (inactive)
8,O=C(CCn1cnnn1)Nc1ccc(Cl)cc1Cl,> 42 µM (inactive)
9,O=C(Nc1ccc(S(=O)(=O)NC2=NCCCCC2)cc1)c1ccc(C(F)(F)F)cc1,> 42 µM (inactive)
10,COc1cccc(/C=N/NC(=O)CCn2cnc3ccccc32)c1,> 42 µM (inactive)
11,O=C(O)c1cc(Oc2ccc(C(F)(F)F)cc2Cl)ccc1[N+](=O)[O-],> 42 µM (inactive)
12,CC(=O)c1cccc(N2C(=NC(=O)C3CCCCC3)SC3CS(=O)(=O)CC32)c1 (stereo not given),> 42 µM (inactive)
13,O=C1OC(Cc2ccccn2)C(O)=C1C1=NCCCN1 (stereo not given),> 42 µM (inactive)
14,COC(=O)c1sccc1NC(=S)N1CCCCC1,> 42 µM (inactive)
15,C(=N\Nc1ccc2nncn2n1)/c1ccccn1,> 42 µM (inactive)
16,CCn1nccc1C(=O)Nc1ccccc1OC,> 42 µM (inactive)
17,CNS(=O)(=O)c1cccc(C(=O)OCC(=O)Nc2ccc(OC)cc2[N+](=O)[O-])c1,> 42 µM (inactive)
18,Cc1ccc(NC(=O)NNC(=O)Cn2nc(-c3ccccc3)c(-c3ccccc3)c(C#N)c2=O)cc1,> 42 µM (inactive)
19,CC1CN(CCCOc2ccc([N+](=O)[O-])cc2)CC(C)O1 (stereo not given),> 42 µM (inactive)
20,Cc1cccc2nc3ccccc3cc12,> 42 µM (inactive)
21,O=S(=O)(NCCN1CCCC1)c1cccc2cccnc12,> 42 µM (inactive)
22,COc1ccc2c(c1)[C@H]1[C@H](CO2)[C@H](c2ccccc2)[C@]2(C)C(=O)Nc3ccc(C)cc3C(=O)N12,> 42 µM (inactive)
23,Cc1ccc(OCC(=O)NN2C(=O)c3ccccc3C2=O)c(C)c1,> 42 µM (inactive)
24,CC(C)(C)c1ccc(CN(Cc2ccccc2)C(c2ccccn2)c2nnnn2C(C)(C)C)cc1 (stereo not given),> 42 µM (inactive)
25,CCOC(=O)c1nc(Nc2ccccc2CC)c2ccccc2n1,> 42 µM (inactive)

row,SMILES,AC50
1,O=C(NCc1csc(-c2cccs2)n1)Nc1ccc(F)cc1F,> 42 µM (inactive)
2,COc1ccccc1N1CCN(C(=O)C2CCN(S(=O)(=O)c3ccc(C)cc3)CC2)CC1,> 42 µM (inactive)
3,CCCOC(=O)c1c(-c2ccc(OC)cc2)oc2ccc(-c3ccc(OC)nc3)cc12,> 42 µM (inactive)
4,C/C(N)=C(/C#N)C(=O)CSc1nnc(-c2ccccc2)n1C,> 42 µM (inactive)
5,O=C(CC(c1ccccc1)c1ccccc1)NCCOCc1ccccc1,> 42 µM (inactive)
6,Cn1c(=O)nc2n(Cc3ccccc3)c3ccccc3cc-2c1=O,> 42 µM (inactive)
7,COCCCn1c(=O)c2ccccc2n(Cc2ccccc2C)c1=O,> 42 µM (inactive)
8,COc1cccc(Cn2cnc3c(NS(=O)(=O)c4cccc(Cl)c4Cl)c(C)c(C)cc32)c1,> 42 µM (inactive)
9,CCCNCC(O)COc1ccccc1C(=O)CCc1ccccc1 (stereo not given),> 42 µM (inactive)
10,CCCOc1ccc([N+](=O)[O-])c(N)c1,> 42 µM (inactive)
11,CN(C/C=C/c1ccccc1[N+](=O)[O-])Cc1ccccc1,> 42 µM (inactive)
12,O=C(c1cc2ccccc2o1)N1CCN(C/C=C/c2ccccc2)CC1,> 42 µM (inactive)
13,Cc1ccccc1C(=O)NNC(=S)Nc1cccc(C(F)(F)F)c1,> 42 µM (inactive)
14,O=C(CSc1nnc(CNC(=O)c2ccccc2F)o1)NCCc1ccccc1,> 42 µM (inactive)
15,CCn1cc(C(=O)N2CCN(c3ccc(OC)cc3)CC2)c(=O)c2cc(S(=O)(=O)N3CCOCC3)ccc21,> 42 µM (inactive)
16,COc1ccc(N(CC(=O)NCc2ccc(C)cc2)S(=O)(=O)c2c(C)nn(C)c2C)cc1,> 42 µM (inactive)
17,Cc1cc(-c2ccc(Cl)cc2Cl)c(C#N)c(=O)[nH]1,> 42 µM (inactive)
18,CC(=O)N(C(C)=O)C1=C(C#N)C2(CCCCC2)Cc2ccccc21,> 42 µM (inactive)
19,COC(=O)C1C2C=CC3(CN(CCc4ccccc4)C(=O)C13)O2 (stereo not given),> 21 µM (inactive)
20,N#CC(C#N)=C1C=CC=CN1/C(=C\c1ccccc1Cl)C(=O)c1ccccc1,> 42 µM (inactive)
21,CN(C)C(CNC(=O)CNC(=O)c1ccc(Br)cc1)c1ccccc1 (stereo not given),> 42 µM (inactive)
22,CC(=O)N1CCN(CC(O)COc2ccc(OCc3ccccc3)cc2)CC1 (stereo not given),> 42 µM (inactive)
23,CN(C(=O)c1ccncc1)c1nnc(-c2cnccn2)s1,> 42 µM (inactive)
24,Cc1ccc(S(=O)(=O)NNC(=O)c2cc3cc4ccccc4nc3s2)cc1,> 42 µM (inactive)
25,Fc1ccc2c(c1)nnn2C1CCN(Cc2nnnn2C2CCCCC2)CC1,> 42 µM (inactive)

row,SMILES,AC50
1,CC(C)(C)NC(=O)NC(=O)CN1CCN(S(=O)(=O)c2ccc3c(c2)OCCO3)CC1,> 21 µM (inactive)
2,COc1cc(NC(=O)C2=CC(c3ccco3)=NS(=O)(=O)N2C)cc(OC)c1OC,> 42 µM (inactive)
3,Cc1ccc(S(=O)(=O)NCc2ccc(C(=O)N3CCN(c4ccccn4)CC3)cc2)cc1,> 42 µM (inactive)
4,CSCCc1nc(SCC(=O)Nc2nnc(C)s2)[nH]c1C,> 42 µM (inactive)
5,COC(=O)CSc1ccc(S(=O)(=O)N2CCCCCC2)cc1[N+](=O)[O-],> 42 µM (inactive)
6,COc1ccc(NC(=S)Nc2ccccc2OC)c(OC)c1,> 42 µM (inactive)
7,N#CCSc1nc2c(c(C3CC=CCC3)c1C#N)CCC2 (stereo not given),> 42 µM (inactive)
8,O=C1NC(=O)C(=Cc2ccc(N3CCOCC3)cc2)C(=O)N1,> 42 µM (inactive)
9,COc1ccccc1CNC(=O)CCC(=O)Nc1nnc(C(C)C)s1,> 42 µM (inactive)
10,COc1c2ccoc2nc2c(OC)c(OC[C@@H](O)C(C)(C)O)ccc12,> 42 µM (inactive)
11,Cc1nc(CSc2nnc3scc(-c4ccccc4)n23)cs1,> 42 µM (inactive)
12,O=c1[nH]cnc2sc3c(c12)CCC3,> 42 µM (inactive)
13,COc1ccc(C(=O)c2c(C)c3cc(C)ccc3n2CC(O)CN2CCOCC2)cc1 (stereo not given),> 110 µM (inactive)
14,O=C(c1cc2c(ccc3ccccc32)oc1=O)N1CCCC1,> 42 µM (inactive)
15,O=C(COc1ccccc1Cl)c1ccc[nH]1,> 42 µM (inactive)
16,COc1ccc(N2CCN(C(=O)Cn3nnc(-c4ccc(OC)c(OC)c4)n3)CC2)cc1,> 42 µM (inactive)
17,Cc1cc(NC(=O)CC2CCCC2)ccc1Br,> 42 µM (inactive)
18,Nc1nnc(COc2ccc(Br)cc2Br)s1,> 42 µM (inactive)
19,CCN(CC)C(=O)CSc1nnc(CNc2ccc(F)cc2)n1Cc1ccco1,> 42 µM (inactive)
20,Cc1ccc(Sc2cnccc2C#N)cc1,> 42 µM (inactive)
21,O=C(CSc1nnc(COc2ccccc2Cl)o1)NC(=O)NC1CCCC1,> 42 µM (inactive)
22,N#CCC(=O)N/N=C/c1ccc(OS(=O)(=O)c2ccccc2)cc1,> 42 µM (inactive)
23,CC(C)C(=O)NNc1ccc(C(F)(F)F)cn1,> 42 µM (inactive)
24,O=S(=O)(c1ccc(S(=O)(=O)N2CCCC2)cc1)N1CCCCC1,> 42 µM (inactive)
25,Cc1cccc(OCC(O)CN2C(C)(C)CC(O)CC2(C)C)c1 (stereo not given),> 42 µM (inactive)

row,SMILES,AC50
1,Cc1cc(=O)oc2ccc(OC(=O)CC(C)C)cc12,> 42 µM (inactive)
2,CCOc1ccc(-c2nnc(SCC(=O)N3CCCC3)o2)cc1,> 42 µM (inactive)
3,CC(C)c1cccc(OCCCCN(C)C)c1,> 42 µM (inactive)
4,COC(=O)c1sc(NC(=O)c2ccc(Cn3cc(Cl)cn3)o2)c(C#N)c1C,> 42 µM (inactive)
5,Cc1nn(CCOc2ccccc2)c(=O)n1-c1ccccc1F,> 42 µM (inactive)
6,Nc1ccc(Oc2ccccc2-c2ccccc2)cc1,> 42 µM (inactive)
7,CCOC(=O)C1(Cc2cccc(Cl)c2)CCCN(C(=O)CCOC)C1 (stereo not given),> 42 µM (inactive)
8,COc1cc(C(=O)OCC(=O)NC(C)CCc2ccccc2)cc(OC)c1OC (stereo not given),> 42 µM (inactive)
9,COc1ccc2c(c1)c(CC(=O)OCC(N)=O)c(C)n2C(=O)c1ccc(Cl)cc1,> 42 µM (inactive)
10,COC(=O)c1cccc(NC(=O)CN(c2ccc3c(c2)OCO3)S(C)(=O)=O)c1C,> 42 µM (inactive)
11,COc1ccccc1N1C(=O)c2ccccc2NC1C(OC)OC (stereo not given),> 42 µM (inactive)
12,CN(c1ccccc1C(=O)N1CCN(Cc2ccc3c(c2)OCO3)CC1)S(C)(=O)=O,> 42 µM (inactive)
13,COc1ccc(/C=C(\C#N)C(=O)NCCCn2ccnc2)cc1,> 42 µM (inactive)
14,Cc1c(NP(=O)(c2ccc(Br)cc2)c2ccc(Br)cc2)c(=O)n(-c2ccccc2)n1C,> 42 µM (inactive)
15,COC(=O)[C@@H]1C[C@@H]2CC[C@@H](O)C[C@@H]2N1Cc1ccc(N2CCN(C)CC2)cc1,> 42 µM (inactive)
16,Cc1ccc(S(=O)(=O)Nc2n[nH]nc2C(=O)NC2CCCCC2)cc1,> 42 µM (inactive)
17,Cn1c(Cn2nnc3ccccc32)nnc1SCC(=O)c1ccc(F)cc1,> 42 µM (inactive)
18,CCn1c(SCc2nc3ccccc3[nH]2)nnc1-c1cccnc1,> 42 µM (inactive)
19,COc1ccc(NC2CC(=O)N(C(C)C)C2=O)cc1 (stereo not given),> 42 µM (inactive)
20,Cc1ccnc(NC(c2cccnc2)c2ccc3cccnc3c2O)c1 (stereo not given),> 42 µM (inactive)
21,COc1ccc(NC(=O)Cn2nnc(C(=O)Nc3ccc(F)c(Cl)c3)c2N)cc1,> 42 µM (inactive)
22,O=C(NC(=S)Nc1ccccc1N1CCCC1)c1ccc([N+](=O)[O-])cc1,> 42 µM (inactive)
23,O=C(O)c1cn(Cc2ccccn2)c(=O)c2ccccc12,> 42 µM (inactive)
24,CCOC(=O)C1=C(C)NC(C)=C(C(=O)OCC)C1C(=O)OC1CCOC1=O (stereo not given),> 42 µM (inactive)
25,CN(C)C(=O)CN1C(=O)c2cccc3cccc1c23,> 42 µM (inactive)
